From paper PMC8966731 (2022)
Bridge positions count the residues as written; N and C are the ends. Square brackets hold non-standard residues; d marks the D form.

System: SARS-CoV-2 M^pro
Conditions: 37 °C, up to 1 h

cleaved bond: Gln3-Tyr4, minor, 1 h
Substance: AcyLQYAVLRHKRREC ({CH2CO}-[dY]LQYAVLRHKRREC-NH2; thioether N-14; SMILES CC(C)C[C@@H]1NC(=O)[C@H](C(C)C)NC(=O)[C@H](C)NC(=O)[C@H](Cc2ccc(O)cc2)NC(=O)[C@H](CCC(N)=O)NC(=O)[C@H](CC(C)C)NC(=O)[C@@H](Cc2ccc(O)cc2)NC(=O)CSC[C@@H](C(N)=O)NC(=O)[C@H](CCC(=O)O)NC(=O)[C@H](CCCNC(=N)N)NC(=O)[C@H](CCCNC(=N)N)NC(=O)[C@H](CCCCN)NC(=O)[C@H](Cc2c[nH]cn2)NC(=O)[C@H](CCCNC(=N)N)NC1=O)
